Experimental findings from US5698560A, “Imidazoquinazoline derivatives” (Kyowa Hakko Kogyo Co., Ltd., priority 1995, dated 1997) are described below.

Structures can show the parent of a compound that is named as a salt.

Experiment [1] addresses T1, PDE V (cGMP-specific PDE) (Canis lupus familiaris, UniProt O77746).
T1 construct: PDE V (cGMP-specific PDE) was purified from canine tracheal smooth muscle; from tissue; host or cells: canine tracheal smooth muscle
The experiment is described as follows: inhibitory activity on PDE V derived from canine tracheal smooth muscle. The experiment is classed as biochemical. As to conditions: 1 nM compound; substrate 1.0 μM [3H]cGMP; pH 7.2; 30° C., 10 to 30 minutes; inhibitor dissolved in 1.7% DMSO; read-out: PDE V Inhibitory activity, inhibition rate (%). As to the method: The inhibitory activity on PDE derived from canine tracheal smooth muscle
According to the method of Torphy et al. [Mol. Pharmacol., 37, 206 (1990)], PDE V (cGMP-specific PDE) was purified from canine tracheal smooth muscle.
The activity was measured based on the method of Kincaid et al. [J. D. Corbin et al., Methods Enzymol., 159, 457 (1988), Academic Press, New York]. The measurement was carried out using, as a substrate, 1.0 μM [^3 H]cGMP, and the reaction was carried out in a buffer having the following composition:
50 mM N,N-bis(2-hydroxyethyl)-2-aminoethanesulfonic acid (pH 7.2), 1 mM MgCl2, 0.1 mg/ml soybean trypsin inhibitor
The reaction was started by addition of an enzyme and stopped by addition of hydrochloric acid after 10 to 30 minutes at 30° C. Thereafter, sodium hydroxide was added for neutralization and 5'-GMP was converted into guanosine using 5'-nucleotidase. The reaction solution was subjected to DEAE-Sephadex A-25 column. [^3 H]Guanosine was eluted with distilled water and the radioactivity was measured with a liquid scintillation counter. The inhibitor was dissolved in 1.7% DMSO.

The test system of the next experiment is rats. The experiment is described as follows: hypotensive effect in anesthetized rats (duodenal administration). The experiment is classed as in vivo, male Sprague-Dawley rat. As to conditions: rat, i.d., within 30 minutes, average of N = 2. As to the method: The hypotensive effect in rats
After a male Sprague-Dawley rat anesthetized with urethane was fixed in the supine position, a cannula was inserted into trachea and the rat was artificially ventilated under the conditions of a tidal volume of […] and 60 breathes/min. The carotid artery and the duodenum were cannulated for measuring blood pressure and administering a drug, respectively. The drug was dissolved in distilled water and administered duodenally using the above cannula. Mean blood pressure (mBP) until 30 minutes after the drug-administration was measured and the maximum loweing rate (%) from the value before the drug-administration (100%) was determined. The average value of 2 samples was calculated in each dose. No change of mBP was observed during 30 minutes in case of administering distilled water.

Take `CCn1c(=S)[nH]c2cc3c(NCc4ccc(OCCN5CCOCC5)cc4)ncnc3cc21` [Compound 42, 3-Ethyl-8-[4-(2-morpholinoethoxy)benzylamino]-2,3-dihydro-1H-imidazo[4,5-g]quinazoline-2-thione.2 hydrochloride]: in experiment [1], the inhibition at 0.001 µM was 89%.

With `CCn1c(=S)[nH]c2cc3c(NCc4ccccc4OCCN4CCOCC4)ncnc3cc21` [Compound 29, 3-Ethyl-8-[2-(2-morpholinoethoxy)benzylamino]-2,3-dihydro-1H-imidazo[4,5-g]quinazoline-2-thione.2 hydrochloride], the inhibition at 0.001 µM in experiment [1] is 91%.

Take `CCn1c(=S)[nH]c2cc3c(NCc4ccc(CN5CCCCC5)cc4)ncnc3cc21` [Compound 15, 3-Ethyl-8-[4-(piperidinomethyl)benzylamino]-2,3-dihydro-1H-imidazo[4,5-g]quinazoline-2-thione.2 hydrochloride]: the inhibition at 0.001 µM in experiment [1] worked out at 63%. Regarding `CCn1c(=S)[nH]c2cc3c(NCc4ccccc4CN4CCOCC4)ncnc3cc21` [Compound 4, 3-Ethyl-8-[2-(morpholinomethyl)benzylamino]-2,3-dihydro-1H-imidazo[4,5-g]quinazoline-2-thione.2 hydrochloride], the “Hypotensive activity, Maximum lowering rate (%) of mean blood pressure (mBP)” value in the experiment with rats (0.1 mg/kg) was 9.0%; in the experiment on rats (1 mg/kg) it was 21.5%; with rats (10 mg/kg), 25.1%. In experiment [1], the inhibition at 0.001 µM worked out at 97%. For `CCn1c(=O)[nH]c2cc3c(NCc4ccccc4CN4CCOCC4)ncnc3cc21` [Compound 1, 3-Ethyl-8-[2-(morpholinomethyl)benzylamino]-2,3-dihydro-1H-imidazo[4,5-g]quinazolin-2-one.2 hydrochloride], in experiment [1], the inhibition at 0.001 µM is 74%.

In the case of `CCn1c(=O)[nH]c2cc3c(NCc4ccccc4OCCN4CCOCC4)ncnc3cc21` [Compound 21, 3-Ethyl-8-[2-(2-morpholinoethoxy)benzylamino]-2,3-dihydro-1H-imidazo[4,5-g]quinazolin-2-one.2 hydrochloride], the inhibition at 0.001 µM in experiment [1] was found to be 29%. With `CCn1c(=S)[nH]c2cc3c(NCc4ccccc4OCCN4CCN(C)CC4)ncnc3cc21` [Compound 32, 3-Ethyl-8-{2-[2-(4-methylpiperazin-1-yl)ethoxy]benzylamino}-2,3-dihydro-1H-imidazo[4,5-g]quinazoline-2-thione.3 hydrochloride], the inhibition at 0.001 µM in experiment [1] was 79%. For `CCOC(=O)C1CCN(Cc2ccccc2CNc2ncnc3cc4c(cc23)[nH]c(=S)n4CC)CC1` [Compound 75, 3-Ethyl-8-{2-[4-(ethoxycarbonyl)piperidin-1-ylmethyl]benzylamino}-2,3-dihydro-1H-imidazo[4,5-g]quinazoline-2-thione.2 hydrochloride], the inhibition at 0.001 µM in experiment [1] was 92%.

Take `CCOC(=O)C1CCN(Cc2ccccc2CNc2ncnc3cc4c(cc23)[nH]c(=O)n4CC)CC1` [Compound 76, 3-Ethyl-8-{2-[4-(ethoxycarbonyl)piperidin-1-ylmethyl]benzylamino}-2,3-dihydro-1H-imidazo[4,5-g]quinazolin-2-one.2 hydrochloride]: in experiment [1], the inhibition at 0.001 µM is 88%. Still for that read-out and setting: as for `CCn1c(=S)[nH]c2cc3c(NCc4cccc(OCCCN5CCOCC5)c4)ncnc3cc21` [Compound 79, 3-Ethyl-8-[3-(3-morpholinopropoxy)benzylamino]-2,3-dihydro-1H-imidazo[4,5-g]quinazoline-2-thione.2 hydrochloride], the figure is 95%; as for `CCN(CC)CCCOc1cccc(CNc2ncnc3cc4c(cc23)[nH]c(=S)n4CC)c1` [Compound 80, 8-{3-[3-(Diethylamino)propoxy]benzylamino}-3-ethyl-2,3-dihydro-1H-imidazo[4,5-g]quinazoline-2-thione.2 hydrochloride], 92%.

`CCn1c(=S)[nH]c2cc3c(NCc4ccccc4CN4CC=CCC4)ncnc3cc21` [Compound 71, 3-Ethyl-8-[2-(1,2,3,6-tetrahydropyridin-1-ylmethyl)benzylamino]-2,3-dihydro-1H-imidazo[4,5-g]quinazoline-2-thione.2 hydrochloride]: the entries for the “Hypotensive activity, Maximum lowering rate (%) of mean blood pressure (mBP)” value in the experiment on rats (0.1 mg/kg), with rats (1 mg/kg) and in the experiment on rats (10 mg/kg) were 16.1%, 22.8% and 23.2%, respectively. For the same compound, in experiment [1], the inhibition at 0.001 µM came out at 97%.

A word on the inhibition: it is the relative decrease from the control value, in per cent.
